{"source": "paper PMC8995209", "about": "(Cell, 2022)", "molecular_target": "iaaH (Agrobacterium tumefaciens, UniProt P0A2X2)", "sequence (P0A2X2 whole entry)": "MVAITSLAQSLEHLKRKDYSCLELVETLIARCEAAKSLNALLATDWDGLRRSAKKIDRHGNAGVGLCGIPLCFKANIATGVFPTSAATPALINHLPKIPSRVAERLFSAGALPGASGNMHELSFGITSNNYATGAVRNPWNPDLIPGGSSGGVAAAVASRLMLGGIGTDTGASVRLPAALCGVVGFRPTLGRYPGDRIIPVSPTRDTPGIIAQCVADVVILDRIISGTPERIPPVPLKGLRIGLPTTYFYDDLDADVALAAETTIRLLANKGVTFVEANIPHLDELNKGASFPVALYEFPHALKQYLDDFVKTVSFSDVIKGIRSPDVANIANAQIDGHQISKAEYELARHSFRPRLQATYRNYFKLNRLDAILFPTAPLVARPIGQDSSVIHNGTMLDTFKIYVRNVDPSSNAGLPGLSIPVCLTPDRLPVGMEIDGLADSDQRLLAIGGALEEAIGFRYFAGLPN", "type": "cell-based", "settings": "hydrolysis to NAA; 48 h conditioning"}
{"smiles": "NC(=O)Cc1cccc2ccccc12", "note": "[NAM, 1-naphthaleneacetamide]", "values": [{"measurement": "conditioned medium of iaaH-expressing CHO-K1 cells, auxin read out by Receiver c", "value": "also able to produce the auxin NAA"}]}
